# Results published in US10830770B2, “Cell death assay” (HQ MEDICAL (NETHERLANDS) B.V., priority 2012, dated 2020).
# Tested on: 4T1-luc2 mouse breast cancer cells
# Assay: dry-ice dead-cells-assay (in vitro model of cryo-induced cell death)
# Assay type: cell-based
# Settings: Trypan Blue 0.2% in culture medium, 15 min, FIG. 4A
# Description: The dead cell targeting properties of seven HQ medical compounds (HQ1-7) were assessed in a newly developed in vitro assay of living and dead 4T1-luc2 mouse breast cancer cells. For this 4T1-luc2 cells were cultured to confluence in 12-well plates and a local area of cell death was induced by applying a bar of dry ice to the bottom of the culture well. Subsequently, the cells were incubated with the test compounds, washed and imaged with the Lycor Odyssey.
# 4T1-Luc cells were seeded onto individual wells from a 12-well cell culture plate and allowed to grow to confluence in RPMI media supplemented with 10% fetal bovine serum. 4T1-luc2 mouse breast cancer cells were used as the adherence of these cells to the bottom of the culture well remains strong after dry-ice treatment. To initiate cryo-induced cell death, media was discarded and dry-ice was applied to the bottom center of each individual well for 15 sec. Subsequently, fresh medium with different concentrations of the HQ medical compounds (HQ1-7) were added and cells were incubated at 37° C. for 15 min. After incubation, the media were discarded and the cells were washed twice with serum free medium and 0.5 ml fresh RPMI was added to each well. Cells were then visualized using a Licor Odyssey equipped with 700 and 800 nm diode laser. Luciferin ([…]) was also added to each well and fluorescence and bioluminescence images were acquired using an IVIS Spectrum (fluorescence: excitation filter: 710 nm, emission filter: 820 nm, exposure time: 90 s, bin: 8, f/stop: 2, field of view: 12.9 cm) (bioluminescence: open filter, exposure time: 30 s, bin: 8, f/stop: 1, field of view: 12.9 cm). Some culture wells were also stained for 15 min with Trypan Blue (0.2% in culture medium) to confirm cell death.
# Confluent cultures of 4T1-luc2 breast cancer cells were treated for 15 sec with a focal application of dry-ice to the bottom center of a culture well and were used to examine the dead cell binding properties of the seven HQ medical NIRF compounds. First, however, in order to confirm the presence of a local area of dead cells, the dry-ice treated cultures were incubated with Trypan blue or were treated with luciferin and measured for bioluminescence.
# HQ medical #1-7 were examined for their imaging potential of dead cells in the present dry-ice dead-cells-assay. The cells were incubated with the HQ medical compounds with concentrations ranging from 0.5 to 0.001 uM. HQ medical #4-7, all specifically bound to dead cells (FIGS. 5A and B). […] For HQ medical #6 and 7, a signal from the dead cell area could be detected at least 50-fold higher concentrations.
row,Compound,uptake of Trypan Blue at site of focal dry-ice treatment compared to viable cells in the periphery
1,Cc1cc(-c2ccc(/N=N/c3c(S(=O)(=O)O)cc4cc(S(=O)(=O)O)cc(N)c4c3O)c(C)c2)ccc1/N=N/c1c(S(=O)(=O)O)cc2cc(S(=O)(=O)O)cc(N)c2c1O [Trypan Blue],increased uptake

# Same assay, conditions: dead vs living cells
row,Compound,binding to dead cells
1,CC1(C)C(/C=C/C2=C(Oc3ccc(S(=O)(=O)O)cc3)C(=C/C=C3/N(CCCCS(=O)(=O)O)c4ccc(S(=O)(=O)[O-])cc4C3(C)C)/CCC2)=[N+](CCCCCC(=O)O)c2ccc(S(=O)(=O)O)cc21 [CW 800],specific binding to dead cells
2,CCN1c2cc3c(cc2C(C)=CC1(C)C)/C(=C/C=C/C=C/C1=[N+](CCCS(=O)(=O)[O-])c2ccc(S(=O)(=O)[O-])cc2C1(C)CCCC(=O)O)C=C(c1ccccc1)O3.[Na+] (stereo not drawn) [DY-776],specific binding to dead cells
3,CCN1C(=CC=CC=CC=CC2=[N+](CCCCCC(=O)O)c3ccc(S(=O)(=O)O)cc3C2(C)C)C(C)(C)c2cc(S(=O)(=O)[O-])ccc21 [CY7],specific binding to dead cells
4,CCN1C(=CC=CC2=[N+](CCCCCC(=O)O)c3ccc(S(=O)(=O)O)cc3C2(C)C)C(C)(C)c2cc(S(=O)(=O)[O-])ccc21 [CY3],specific binding to dead cells
5,CCN1c2cc3c(cc2C(C)=CC1(C)C)C(=CC=CC1=[N+](CCCS(=O)(=O)[O-])c2ccc(S(=O)(=O)[O-])cc2C1(C)CCCC(=O)O)C=C(c1ccccc1)O3.[Na+] (stereo not drawn) [DY-676],specific binding to dead cells
6,CC[N+](CC)=c1ccc2c(C(C)(C)C)cc(/C=C/C=C3/N(CCCS(=O)(=O)[O-])c4ccc(S(=O)(=O)[O-])cc4C3(C)CCCC(=O)O)oc-2c1.[Na+] (stereo not drawn) [DY-681],specific binding to dead cells
7,CC1(C)C(/C=C/C=C/C=C/C=C2\N(CCCCS(=O)(=O)[O-])c3ccc4ccccc4c3C2(C)C)=[N+](CCCCS(=O)(=O)[O-])c2ccc3ccccc3c21.[Na+] [ICG],specific binding to dead cells
8,CY5.5,specific binding to dead cells
9,CC[N+](CC)=c1ccc2c(/C=C/C=C/C=C3/N(CCCS(=O)(=O)[O-])c4ccc(S(=O)(=O)[O-])cc4C3(C)CCCC(=O)O)cc(C(C)(C)C)oc-2c1.[Na+] (stereo not drawn) [DY-731],specific binding to dead cells
10,CCN1/C(=C/C=C/C=C/C2=[N+](CCCCCC(=O)O)c3ccc(S(=O)(=O)O)cc3C2(C)C)C(C)(C)c2cc(S(=O)(=O)[O-])ccc21 [CY5],specific binding to dead cells
11,CC1(C)C(=CC=C2CCCC(C=CC3=[N+](CCC[N+](C)(C)C)c4ccc(S(=O)(=O)O)cc4C3(C)C)=C2Oc2ccc(CCC(=O)O)cc2)N(CCC[N+](C)(C)C)c2ccc(S(=O)(=O)O)cc21 [ZW800],specific binding to dead cells
